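Results reflect a 48-hour exposure of cells in 96-well plates to compound at five concentrations. At the GI50, growth is halved. TGI is the concentration that stops growth completely.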 Numbered stars: 1 amine (or outer) side, 2 acyl side, 3 side chain; on linkers, the order of the positions; unused ones are H or OH. Bridge positions count the residues as written; N and C are the ends. Square brackets hold non-standard residues; d marks the D form. Peptide text beside a SMILES is read from it. I, II: the chains in the order shown. Actinocin(1to9) = Cc1c2oc3c(C)ccc(C(=O)[*:2])c3nc-2c(C(=O)[*:1])c(N)c1=O; NMeV = CN[CH](C(=O)O)C(C)C; Sar = CNCC(=O)O
What was measured:
Experiment in all cases: NCI-60 cell line screen, 48 h
[1] = system: COLO 205 colon
[2] = system: KM12 colon
[3] = system: M14 melanoma
[4] = system: NCI-H226 lung
[5] = system: NCI-H460 lung
[6] = system: OVCAR-3 ovarian
[7] = system: SF-539 CNS
[8] = system: U251 CNS
[9] = system: MCF7 breast
[10] = system: UACC-62 melanoma

## COC1=CC(=O)C2C(C1=O)[C@@H]1c3ccccc3OC[C@H]21 (some centres not stated)
[1]
  TGI: > 100 µM
[2]
  TGI: > 100 µM
[3]
  TGI: > 100 µM
[4]
  TGI: > 100 µM
[5]
  TGI: > 100 µM
[6]
  TGI: > 100 µM
[7]
  TGI: > 100 µM
[8]
  TGI: > 100 µM

## CCC(C)C1NC(=O)C(NC(=O)c2c3nc4c(C(=O)NC5C(=O)NC(C(C)C)C(=O)N6CCCC6C(=O)N(C)CC(=O)N(C)C(C(C)C)C(=O)OC5C)ccc(C)c4oc-3c(C)c(=O)c2N)C(C)OC(=O)C(C(C)C)N(C)C(=O)CN(C)C(=O)C2CCCN2C1=O (configuration not stated) (I: TIP[Sar][NMeV] / II: TVP[Sar][NMeV]; ester I:1-I:C, II:1-II:C; linker I:N-II:N via Actinocin(1to9); configuration not given here)
[1]
  TGI: 0.0163 µM
[2]
  TGI: 0.191 µM
[3]
  TGI: 0.161 µM
[9]
  TGI: > 100 µM
[4]
  TGI: 0.153 µM
[7]
  TGI: 0.107 µM
[8]
  TGI: 10.1 µM

## N#Cc1c(Nc2ccccc2)[n+]([O-])c2ccc(Cl)cc2[n+]1[O-]
[1]
  TGI: 8.03 µM
[2]
  TGI: > 100 µM
[3]
  TGI: 34.1 µM
[9]
  TGI: > 35.2 µM
[4]
  TGI: > 45.2 µM
[6]
  TGI: 9.76 µM
[7]
  TGI: 21.4 µM
[8]
  TGI: 15.6 µM
[10]
  TGI: 31.5 µM

## CCCC(=O)Oc1cc(OC(=O)CCC)c2c(C)cc(=O)oc2c1
[1]
  TGI: > 100 µM
[2]
  TGI: > 100 µM
[3]
  TGI: > 100 µM
[9]
  TGI: > 100 µM
[4]
  TGI: > 100 µM
[6]
  TGI: > 100 µM
[7]
  TGI: > 100 µM
[8]
  TGI: > 100 µM
[10]
  TGI: > 100 µM

## CCN1CCC(O)(/C=C/c2ccc(Cl)cc2)C(C(=O)/C=C/c2ccc(Cl)cc2)C1 (configuration not stated)
[1]
  TGI: > 100 µM
[2]
  TGI: 29.5 µM
[3]
  TGI: > 100 µM
[4]
  TGI: 43.6 µM
[5]
  TGI: > 100 µM
[6]
  TGI: 40.2 µM
[8]
  TGI: 44.9 µM
[10]
  TGI: 42.2 µM

## O=c1cc(-c2cccc(Br)c2)[nH]c2cc3c(cc12)OCO3
[1]
  TGI: > 100 µM
[2]
  TGI: 25.4 µM
[3]
  TGI: 24.5 µM
[9]
  TGI: > 100 µM
[4]
  TGI: 37 µM
[5]
  TGI: 24.8 µM
[6]
  TGI: 9.5 µM
[7]
  TGI: 6.58 µM
[8]
  TGI: 11.4 µM
[10]
  TGI: 4.83 µM

## C/C=C1/C(=O)O[C@]23C=C[C@@H]4C(C(=O)OC)=CO[C@H](O[C@@H]12)[C@@H]43
[1]
  TGI: 3.29 µM
[2]
  TGI: 6.12 µM
[9]
  TGI: 3.76 µM
[4]
  TGI: 5.36 µM
[5]
  TGI: 32.4 µM
[6]
  TGI: 3.95 µM
[7]
  TGI: 7.39 µM
[8]
  TGI: 5.9 µM
[10]
  TGI: 2.89 µM

## OCC1(CNc2cc(Cl)ncn2)CCC1
[1]
  TGI: > 100 µM
[2]
  TGI: > 100 µM
[9]
  TGI: > 100 µM
[4]
  TGI: > 100 µM
[5]
  TGI: > 100 µM
[6]
  TGI: > 100 µM
[7]
  TGI: > 100 µM
[8]
  TGI: > 100 µM

## CC(=O)c1cccc(NC(=O)/C(=N\NC(=S)NN)C2C(=O)Nc3ccccc3S2=O)c1 (configuration not stated)
[2]
  TGI: > 100 µM
[3]
  TGI: > 100 µM
[9]
  TGI: > 100 µM
[4]
  TGI: > 100 µM
[6]
  TGI: > 100 µM
[7]
  TGI: > 100 µM
[8]
  TGI: > 100 µM
[10]
  TGI: > 100 µM

## COc1ccc(-c2c(C#N)cnc(N)c2-c2nc3cc(C)c(C)cc3[nH]2)cc1
[1]
  GI50: 7.78 µM
  TGI: 63.7 µM
[2]
  GI50: 3.47 µM
  TGI: > 100 µM
[3]
  GI50: 6.61 µM
  TGI: > 100 µM
[9]
  GI50: 6.34 µM
  TGI: > 100 µM
[4]
  GI50: 16.4 µM
  TGI: > 100 µM
[5]
  GI50: 18.1 µM
  TGI: > 100 µM
[6]
  GI50: 14.8 µM
  TGI: 30.4 µM
[7]
  GI50: 11.5 µM
  TGI: 41.9 µM
[8]
  GI50: 3.65 µM
  TGI: 12.7 µM
[10]
  GI50: 7.22 µM
  TGI: > 100 µM

## O=C(CSCC(=O)N/N=C/c1ccncc1)N/N=C/c1ccncc1
[2]
  TGI: > 100 µM
[3]
  TGI: > 100 µM
[9]
  TGI: > 100 µM
[4]
  TGI: > 100 µM
[5]
  TGI: > 100 µM
[6]
  TGI: > 100 µM
[7]
  TGI: > 100 µM
[8]
  TGI: > 100 µM
[10]
  TGI: > 100 µM

## CCOC(=O)C1C(=O)c2cccc(OC)c2C2COC(=O)N12 (configuration not stated)
[1]
  TGI: > 100 µM
[2]
  TGI: > 100 µM
[3]
  TGI: > 100 µM
[4]
  TGI: > 100 µM
[5]
  TGI: > 100 µM
[6]
  TGI: > 100 µM
[7]
  TGI: > 100 µM
[8]
  TGI: > 100 µM
[10]
  TGI: > 100 µM

## COc1ccc(/C=C/C(=O)/C=C(/C=C/c2ccc(OC)c(OC)c2OC)OB(F)F)c(OC)c1OC
[1]
  GI50: 1.94 µM
  TGI: 6.84 µM
[2]
  GI50: 2.09 µM
  TGI: 5.08 µM
[3]
  GI50: 2.74 µM
  TGI: > 100 µM
[9]
  GI50: 0.502 µM
  TGI: > 100 µM
[5]
  GI50: 1.66 µM
  TGI: 3.52 µM
[7]
  GI50: 3.11 µM
  TGI: > 100 µM
[8]
  GI50: 0.973 µM
  TGI: 8.09 µM
[10]
  GI50: 1.47 µM
  TGI: 4.69 µM

## O=C(NC(Cc1ccccc1)P(=O)(O)c1ccccc1)OCc1ccccc1 (configuration not stated)
[1]
  TGI: > 100 µM
[2]
  TGI: > 100 µM
[3]
  TGI: > 100 µM
[9]
  TGI: > 100 µM
[4]
  TGI: > 100 µM
[5]
  TGI: > 100 µM
[6]
  TGI: > 100 µM
[8]
  TGI: > 100 µM
[10]
  TGI: > 100 µM

## Nc1nc2c(ncn2CC(CO)CC(c2ccccc2)P(=O)(O)O)c(=O)[nH]1 (configuration not stated)
[1]
  TGI: > 100 µM
[2]
  TGI: > 100 µM
[3]
  TGI: > 100 µM
[4]
  TGI: > 100 µM
[5]
  TGI: > 100 µM
[6]
  TGI: > 100 µM
[7]
  TGI: > 100 µM
[8]
  TGI: > 100 µM
[10]
  TGI: > 100 µM

## C=C(C)COC(=O)COCC(=O)OCC(=C)C
[1]
  TGI: > 100 µM
[2]
  TGI: > 100 µM
[3]
  TGI: > 100 µM
[9]
  TGI: > 100 µM
[4]
  TGI: > 100 µM
[5]
  TGI: > 100 µM
[6]
  TGI: > 100 µM
[8]
  TGI: > 100 µM
[10]
  TGI: > 100 µM

## CC1CC/C(=C\c2ccc(F)cc2)C2=C1C(c1ccc(F)cc1)n1c(s/c(=C\c3ccc(Cl)cc3)c1=O)=N2 (configuration not stated)
[2]
  TGI: > 100 µM
[3]
  TGI: > 100 µM
[9]
  TGI: > 100 µM
[8]
  TGI: > 100 µM
[10]
  TGI: > 100 µM

## O[C@H]1[C@@H]2OC[C@@H](O)[C@H](OCc3ccccc3)[C@@](COCc3ccccc3)(O2)[C@@H]1OCc1ccccc1
[1]
  TGI: 32.8 µM
[2]
  TGI: 35.6 µM
[3]
  TGI: 36.3 µM
[9]
  TGI: 39.6 µM
[5]
  TGI: 53.8 µM
[6]
  TGI: 19.4 µM
[7]
  TGI: 31 µM
[8]
  TGI: 30.4 µM
[10]
  TGI: 23.5 µM

## COc1cc2c(cc1O)N=C[C@@H]1CCC(O)N1C2=O (mixture of isomers)
[1]
  TGI: 1.93 µM
[2]
  TGI: 17.9 µM
[9]
  TGI: 37 µM
[4]
  TGI: 2.08 µM
[5]
  TGI: 11.4 µM
[6]
  TGI: 1.49 µM
[7]
  TGI: 1.83 µM
[8]
  TGI: 1.71 µM
[10]
  TGI: 1.5 µM

## Cc1nc2c(s/c(=N\N)n2-c2ccccc2)c(=O)n1C
[1]
  TGI: > 100 µM
[2]
  TGI: > 100 µM
[3]
  TGI: > 100 µM
[4]
  TGI: > 100 µM
[5]
  TGI: > 100 µM
[7]
  TGI: > 100 µM
[8]
  TGI: > 100 µM
[10]
  TGI: > 100 µM

## S=c1sscc1N1CCSc2ssc(=S)c21
[1]
  TGI: > 100 µM
[2]
  TGI: > 100 µM
[3]
  TGI: > 100 µM
[9]
  TGI: > 100 µM
[4]
  TGI: > 100 µM
[5]
  TGI: > 100 µM
[7]
  TGI: > 100 µM
[8]
  TGI: 38.2 µM
[10]
  TGI: > 100 µM

Source: PubChem BioAssay (NCI)
